Where “and” joins values, the source holds several entries; their conditions need not be identical. Equal values may be shown once.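 Interpolation was linear, between the two tested concentrations surrounding the appropriate level; five concentrations were tested over 48 hours in 96-well plates. At the GI50, growth is halved. The concentration for full growth arrest is given as TGI.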
Legend:
Experiment in all cases: growth of human tumour cells (NCI), 48 h
U251 CNS = tested on: U251 CNS
RPMI-8226 leukemia = tested on: RPMI-8226 leukemia
SK-MEL-5 melanoma = tested on: SK-MEL-5 melanoma
MCF7 breast = tested on: MCF7 breast
SN12C renal = tested on: SN12C renal
HCT-15 colon = tested on: HCT-15 colon
HCC-2998 colon = tested on: HCC-2998 colon
SW-620 colon = tested on: SW-620 colon
HCT-116 colon = tested on: HCT-116 colon
SF-295 CNS = tested on: SF-295 CNS

| SMILES | TGI (U251 CNS) | TGI (RPMI-8226 leukemia) | TGI (SK-MEL-5 melanoma) | TGI (MCF7 breast) | TGI (SN12C renal) | TGI (HCT-15 colon) | TGI (HCC-2998 colon) | TGI (SW-620 colon) | TGI (HCT-116 colon) | TGI (SF-295 CNS) | GI50 (U251 CNS) | GI50 (RPMI-8226 leukemia) | GI50 (SK-MEL-5 melanoma) | GI50 (MCF7 breast) | GI50 (SN12C renal) | GI50 (HCT-15 colon) | GI50 (HCC-2998 colon) | GI50 (SW-620 colon) | GI50 (HCT-116 colon) | GI50 (SF-295 CNS) |
| --- | --- | --- | --- | --- | --- | --- | --- | --- | --- | --- | --- | --- | --- | --- | --- | --- | --- | --- | --- | --- |
| O=C(O)C(Cc1cccs1)C(=O)O | > 100 µM | > 100 µM | > 100 µM | > 100 µM | > 100 µM | > 100 µM | > 100 µM | > 100 µM | > 100 µM | – | – | – | – | – | – | – | – | – | – | – |
| CN(C)Cc1cc(C(=O)O)cc(CN(C)C)c1O | > 100 µM | > 100 µM | > 100 µM | > 100 µM | > 100 µM | > 100 µM | > 100 µM | > 100 µM | > 100 µM | > 100 µM | – | – | – | – | – | – | – | – | – | – |
| CC(NCCS(=O)(=O)O)C(=O)O (stereo not given) | > 100 µM | > 100 µM | > 100 µM | > 100 µM | > 100 µM | > 100 µM | > 100 µM | > 100 µM | > 100 µM | > 100 µM | – | – | – | – | – | – | – | – | – | – |
| COc1ccc(-c2cn3ccnc3c(-c3ccc4ncn(C5CCCCC5)c4c3)n2)cc1 | > 100 µM | > 100 µM | 3.2 µM | > 100 µM | > 100 µM | > 100 µM | > 100 µM | > 100 µM | 4.06 µM | – | 2.22 µM | 2.96 µM | 0.698 µM | 0.64 µM | 2.11 µM | 0.722 µM | 2.92 µM | 0.734 µM | 0.399 µM | – |
| CCCCCCCCCC[C@@H](O)[C@@H]1CC[C@@H]([C@@H]2CC[C@@H]([C@@H](O)CCCCCCCCCCC(O)CC3=CC(C)OC3=O)O2)O1 (stereo not given in full) | – | > 10 µM | 2.92 µM | > 10 µM | > 10 µM | > 10 µM | > 10 µM | > 10 µM | > 10 µM | > 10 µM | – | – | – | – | – | – | – | – | – | – |
| Cc1c2cc[n+](C)cc2c(C)c2c1[nH]c1ccccc12 | 1.94 µM and 2.74 µM | 88.7 µM and 92 µM | 5.92 µM and 4.85 µM | 21.9 µM and 39.5 µM | 1.29 µM and 1.2 µM | > 100 µM and 99 µM | 12.6 µM and 12.9 µM | 54.6 µM and 47.5 µM | 35.2 µM and 33.6 µM | 1.71 µM and 2.08 µM | – | – | – | – | – | 88 µM and 19.4 µM | – | – | – | – |
| C=C[C@H]1CN2CC[C@H]1C[C@@H]2[C@@H](O)c1ccnc2ccccc12 | > 100 µM | 90 µM | > 100 µM | > 100 µM | > 100 µM | > 100 µM | – | > 100 µM | > 100 µM | > 100 µM | – | – | – | – | – | – | – | – | – | – |
| NCCCCCCNc1cc(-c2cccc(OC(F)(F)F)c2)nc2ccc(N3CCCC3)cc12 | – | – | – | – | – | – | – | 3.02 µM | – | 3.15 µM | – | – | – | – | – | – | – | 1.48 µM | – | 1.75 µM |
